Like-named read-outs stand apart in the source and are kept apart here.
Key:
[1] = test system: subcutaneous adipocytes; assay: Lipid assay (AdipoRed staining of differentiated adipocytes); assay type: cell-based; settings: combination with 10 ng/ml N-(4-amino-2-methylquinolin-6-yl)-2-((4-ethylphenoxy)methyl)benzamide; one week treatment
Experimental: The lipid assay is performed on subcutaneous adipocytes. Cell culture dishes are inoculated with preadipocytes, which undergo differentiation into adipocytes. This is followed by treatment with the active substance for one week, during which the cells synthesize lipids and store them in vesicles. The total amount of lipid as a function of active substance effects is determined at the end of the culture period. This is done by staining the cell monolayer with the lipophilic fluorescent dye AdipoRed, followed by quantification by fluorescence spectroscopy.

[2] = LDH (lactate dehydrogenase) cytotoxicity assay, fibroblasts
Experimental: The third assay performed is the LDH (lactate dehydrogenase) cytotoxicity assay. In this assay, the metabolic enzyme LDH is detected in the medium supernatant of the cell monolayer by adding a substrate for the enzyme to the cell culture supernatant. Reaction of the latter produces a color change, which is determined photometrically. The magnitude of the color change correlates here with the amount of LDH in the cell culture supernatant.
For all assays, the active substances were present as 1000× stocks dissolved to 10 mM in DMSO and were diluted 1:1000 in the appropriate cell culture medium for use.

[3] = test system: dermal fibroblasts; assay: BrdU viability assay (cell division rate); assay type: cell-based; settings: combination with 10 ng/ml N-(4-amino-2-methylquinolin-6-yl)-2-((4-ethylphenoxy)methyl)benzamide; 24 h treatment
Experimental: For the viability assay, dermal fibroblasts were treated with active substances/active substance combinations in the cell culture medium for 24 h and during this time were provided with BrdU (5-bromodeoxyuridine). The cells take up this synthetic nucleic acid, which is detectable by fluorescence detection, and incorporate it into newly synthesized genetic material during cell division. The fluorescence of the cell monolayer is then measured after 24 h, the intensity of which is ultimately a measure of the cell division rate during treatment with the active substance. This allows conclusions to be drawn about the effect of the individual active substances on cell viability.

[4] = combination with 10 ng/ml N-(4-amino-2-methylquinolin-6-yl)-2-((4-ethylphenoxy)methyl)benzamide, table does not say whether fibroblasts or adipocytes

C=CC(C)(O)CCC=C(C)CC (mixture of isomers) [Ethyl linalool]
Assay in which the combination showed better activity than the corresponding active substance alone: Lipid [1]: Lipid

OCc1ccccc1 [Benzyl alcohol DD, Benzyl alcohol]
Assay in which the combination showed better activity than the corresponding active substance alone: Lipid [1]: Lipid

O=C(C=Cc1ccccc1)OCc1ccccc1 [Benzyl cinnamate]
Assay in which the combination showed better activity than the corresponding active substance alone: Lipid [1]: Lipid

O=C(OCc1ccccc1)c1ccccc1O [Benzyl salicylate]
Assay in which the combination showed better activity than the corresponding active substance alone: LDH [2]: LDH

CC(C)=CCCC(C)=CC=O [Citral 95, Citral]
Assay in which the combination showed better activity than the corresponding active substance alone: BrdU [3]: BrdU

CC(C)=CCCC(C)CCO (centres unmarked) [Citronellol 950, Citronellol]
Assay in which the combination showed better activity than the corresponding active substance alone: Lipid [1]: Lipid
Assay in which the combination showed better activity than the corresponding active substance alone: LDH [2, 4]: LDH

C=CC(C)CCCC(C)(C)O (centres unmarked) [Dihydromyrcenol]
Assay in which the combination showed better activity than the corresponding active substance alone: Lipid [1]: Lipid

CCOc1cc(C=O)ccc1O [Ethyl vanillin]
Assay in which the combination showed better activity than the corresponding active substance alone: Lipid [1]: Lipid

C=CCc1ccc(O)c(OC)c1 [Eugenol]
Assay in which the combination showed better activity than the corresponding active substance alone: BrdU [3]: BrdU

CC(C)=CCCC(C)=CCCC(C)=CCO [Farnesol]
Assay in which the combination showed better activity than the corresponding active substance alone: LDH [2, 4]: LDH

CCCCCC1C(=O)CCC1CC(=O)OC (centres unmarked) [Hedion]
Assay in which the combination showed better activity than the corresponding active substance alone: Lipid [1]: Lipid
Assay in which the combination showed better activity than the corresponding active substance alone: LDH [2, 4]: LDH
Assay in which the combination showed better activity than the corresponding active substance alone: BrdU [3]: BrdU

CC/C=C\CCO [Hexenol cis-3]
Assay in which the combination showed better activity than the corresponding active substance alone: Lipid [1]: Lipid
Assay in which the combination showed better activity than the corresponding active substance alone: LDH [2, 4]: LDH
Assay in which the combination showed better activity than the corresponding active substance alone: BrdU [3]: BrdU

CCCCCCOC(=O)c1ccccc1O [Hexyl salicylate]
Assay in which the combination showed better activity than the corresponding active substance alone: Lipid [1]: Lipid
Assay in which the combination showed better activity than the corresponding active substance alone: LDH [2, 4]: LDH

CC(CC=O)CCCC(C)(C)O (centres unmarked) [Hydroxycitronellal]
Assay in which the combination showed better activity than the corresponding active substance alone: LDH [2, 4]: LDH

CC(=O)C1(C)CC2=C(CCCC2(C)C)CC1C (centres unmarked) [Iso E Super]
Assay in which the combination showed better activity than the corresponding active substance alone: Lipid [1]: Lipid
Assay in which the combination showed better activity than the corresponding active substance alone: LDH [2, 4]: LDH

CC(C=O)Cc1ccc(C(C)(C)C)cc1 (centres unmarked) [Lilial]
Assay in which the combination showed better activity than the corresponding active substance alone: LDH [2, 4]: LDH

C=C(C)[C@H]1CC=C(C)CC1 [Limonene D pure, Limonene D]
Assay in which the combination showed better activity than the corresponding active substance alone: Lipid [1]: Lipid

C=CC(C)(O)CCC=C(C)C (centres unmarked) [Linalool aroma, Linalool]
Assay in which the combination showed better activity than the corresponding active substance alone: Lipid [1]: Lipid
Assay in which the combination showed better activity than the corresponding active substance alone: LDH [2, 4]: LDH

C=CC(C)(CCC=C(C)C)OC(C)=O (centres unmarked) [Linalyl acetate]
Assay in which the combination showed better activity than the corresponding active substance alone: LDH [2, 4]: LDH

O=C1CCCCCCCCCCCCCCO1 [Macrolide supra]
Assay in which the combination showed better activity than the corresponding active substance alone: Lipid [1]: Lipid

CCCCCC#CC(=O)OC [Methyl heptine carbonate]
Assay in which the combination showed better activity than the corresponding active substance alone: Lipid [1]: Lipid
Assay in which the combination showed better activity than the corresponding active substance alone: LDH [2, 4]: LDH

OCCc1ccccc1 [Phenylethyl alcohol]
Assay in which the combination showed better activity than the corresponding active substance alone: BrdU [3]: BrdU

Cc1ccc(C(C)C)c(O)c1 [Thymol cryst., Thymol]
Assay in which the combination showed better activity than the corresponding active substance alone: LDH [2, 4]: LDH

— patent US20210145722A1, “ACTIVE SUBSTANCE COMBINATIONS OF N-(4-AMINO-2-METHYLQUINOLIN-6-YL)-2-((4-ETHYLPHENOXY)METHYL)BENZAMIDE AND ONE OR MORE COSMETICALLY OR DERMATOLOGICALLY ACCEPTABLE FRAGRANCES” (BEIERSDORF AG, priority 2017, published 2021)
